Laboratory results taken from patent publication US20030059788A1, “Genetic markers of toxicity, preparation and uses thereof” (priority 2002, published 2003).
Like-named read-outs stand apart in the source and are kept apart here. Numbered stars: 1 amine (or outer) side, 2 acyl side, 3 side chain; on linkers, the order of the positions; unused ones are H or OH. Bridge positions count the residues as written; N and C are the ends. Square brackets hold non-standard residues; d marks the D form. Peptide text beside a SMILES is read from it. I, II: the chains in the order shown. Actinocin(9to1) = Cc1c2oc3c(C)ccc(C(=O)[*:1])c3nc-2c(C(=O)[*:2])c(N)c1=O; NMeV = CN[C@H](C(=O)O)C(C)C; Sar = CNCC(=O)O

Experiments:
HepG2 cells [1] = test: cell viability test (MTT), concentration corresponding to an IC80; format: cell-based
Description: (§1) HepG2 cells are then individually treated with different compounds with different levels of toxicity.

HepG2 cells [2] = test: hybridization of probes from treated HepG2 cells on filters with clones from qualitative screening of p53-induced apoptosis (toxicity index); format: cell-based; details: HepG2 cells treated at IC80 concentration, p53 apoptosis filter
Description: as §1

[3] = HepG2 cells, exposure time 18 h
[4] = HepG2 cells, exposure time 18 h, read-out: Concentration (calculated by cell viability test MTT, corresponds to an IC80)

| Compound | Concentration (calculated by cell viability test MTT, corresponds to an IC80) (HepG2 cells [1]; [3]) | IC80 (HepG2 cells [1]; [4]) | further results |
| --- | --- | --- | --- |
| O=c1[nH]cc(F)c(=O)[nH]1 [5 FU] | – | – | IC80 (HepG2 cells [1]): 10 µM |
| Cc1c2oc3c(C)ccc(C(=O)N[C@@H]4C(=O)N[C@H](C(C)C)C(=O)N5CCC[C@H]5C(=O)N(C)CC(=O)N(C)[C@@H](C(C)C)C(=O)O[C@@H]4C)c3nc-2c(C(=O)N[C@@H]2C(=O)N[C@H](C(C)C)C(=O)N3CCC[C@H]3C(=O)N(C)CC(=O)N(C)[C@@H](C(C)C)C(=O)O[C@@H]2C)c(N)c1=O [Actinomycin D] (I: T[dV]P[Sar][NMeV] / II: T[dV]P[Sar][NMeV]; ester I:1-I:C, II:1-II:C; linker I:N-II:N via Actinocin(9to1)) | 0.02 µg/mL | – | – |
| C[C@H]1C[C@H]2[C@@H]3CCC4=CC(=O)C=C[C@]4(C)[C@@]3(Cl)[C@@H](O)C[C@]2(C)[C@@]1(O)C(=O)CO [Beclomethazone] | – | 0.05 µM | – |
| C[C@@H]1C[C@@H]([C@H](O)CC2CC(=O)NC(=O)C2)C(=O)[C@@H](C)C1 [Cycloheximide] | 5 µg/mL | – | – |
| O=C(O)Cc1ccccc1Nc1c(Cl)cccc1Cl [Diclofenac] | – | – | splicing events identical to those induced by p53-related toxicity (toxicity index, FIG. 2) (HepG2 cells [2]): generates more splicing events identical to those induced by p53-related toxicity than aspirin |
| N#CC(C#N)=NNc1ccc(OC(F)(F)F)cc1 [FCCP] | – | – | IC80 (HepG2 cells [1]): 5 µM |
| OO [H2O2] | – | 100 µM | – |
| CCCCCCCCCCCCCC(=O)O[C@@H]1[C@@H](C)[C@@]2(O)[C@@H](C=C(CO)C[C@]3(O)C(=O)C(C)=C[C@@H]23)[C@@H]2C(C)(C)[C@]12OC(C)=O [PMA] | 1 µg/mL | – | – |
| CN[C@@H]1C[C@H]2O[C@@](C)([C@@H]1OC)n1c3ccccc3c3c4c(c5c6ccccc6n2c5c31)C(=O)NC4 [Staurosporine] | – | 0.05 µM | – |
| CC(C)[C@@H]1NC(=O)[C@H](C)OC(=O)[C@@H](C(C)C)NC(=O)[C@@H](C(C)C)OC(=O)[C@H](C(C)C)NC(=O)[C@H](C)OC(=O)[C@@H](C(C)C)NC(=O)[C@@H](C(C)C)OC(=O)[C@H](C(C)C)NC(=O)[C@H](C)OC(=O)[C@@H](C(C)C)NC(=O)[C@@H](C(C)C)OC1=O [Valinomycin] | – | 0.015 µM | – |
